{"source": "patent US20090215171A1", "about": "“PELCAM-1-related molecules compositions kit of parts and associated methods of use” (The Johns Hopkins University, priority 2004, published 2009)", "system": "HUVECs", "test": "Measurement of intracellular free [Ca2+]i in HUVEC suspension (Fura-2/AM, thrombin stimulation)", "assay_type": "cell-based, human", "details": "rest HUVEC; 16 h treatment; Ab 0.4 and 1.6 μg/mL, peptides 15 and 30 μg/mL; thrombin 1 U/ml", "method": "HUVECs were cultured in EGM™ supplied with 10% of fetal bovine serum (FBS, dialyzed) to early confluence. HUVECs (passage number 3-4) were pre-incubated with and without TNF-α (5 ng/mL, 4 hour), next the cells were subjected to various doses of the JHS-7 Ab, accompanied by the pAb-C (c-terminal anti-PECAM-1 antibody) and a rabbit IgG (both served as controls). In addition, HUVECs were also incubated with a various doses of the JHS-7 peptide and a scrambled peptide served as its control. The treatments were carried out in EGM™ supplied with 2% of FBS for 16 hours. […] All above-mentioned peptides and antibodies were tested endotoxin free with an endotoxin detection kit (Sigma E-TOXATE®). Cell viability was determined with trypan blue exclusion assay after the incubation and no cytotoxic effect was observed under the Applicants' experimental conditions. HUVEC monolayers, following the incubation, were subjected to the following assays simultaneously: 1) monocyte TEM assay; 2) [Ca^2+]i measurement. […] Experimental results were calculated as average levels and plotted as % controls.\n[Ca^2+]i measurement was conducted as described previously with slight modification. […] Fluorescence was recorded using a spectrofluorometer (Perkin Elmer LS-50B), with excitation and emission wavelengths of 340 and 505 nm, respectively. […]"}
{"substance": "scrambled peptide: control peptide of identical amino acid composition but different sequence TEDVLVPQNKSDNKATNNAFPNVSYVDEEDC (SEQ ID NO: 4) (Nonsense peptide with no known matches.)", "values": [{"measurement": "thrombin stimulatable [Ca2+]i", "result": "no effect"}]}
